Reference: patent publication US11986557B2, “Stealth nanoparticles” (HOWARD UNIVERSITY, priority 2018, dated 2024)

Key:
SKBR3 = experiment: In vitro cytotoxicity studies, SKBR3; type: cell-based, human
Protocol: (§1) In vitro cytotoxicity studies were conducted to determine the cytotoxic effect of paclitaxel (as a free drug/not in nanoparticle), 17AAG (free drug), paclitaxel+17AAG combination (as free drugs), and paclitaxel+17AAG combination loaded nanoparticles on two human breast cancer cell lines, SKBR3 and MCF7.
(§2) In preparation of the drug combination treatment, one part of each drug was halved and combined, such that each drug in the combination treatment contained half the concentration of their single drug counterparts. This means that the paclitaxel concentration in the combination treatment is 50% of the paclitaxel (single drug) treatment. In other words, the ratio of the concentration in the single drug to its respective concentration in the combination is 2:1. Also, the drug concentration ratio within the combination (paclitaxel: 17AAG) was approximately 1:1.
(§3) For 5 days of assaying, three plates were treated for each day. The first was treated with paclitaxel solution (single drug) and paclitaxel/17AAG combination solution and second with 17AAG solution (single drug) and paclitaxel/17AAG combination solution. The last plate was treated with the combination drug loaded nanoparticle solution and paclitaxel/17AAG combination solution (free drug).

MCF7 = experiment: In vitro cytotoxicity studies, MCF7; type: cell-based, human
Protocol: as §1, §2, §3

[1] = pH 5.0 versus pH 7.4; cited from earlier work

Compound	Cytotoxic effect at low concentrations (SKBR3)	Cytotoxic effect at low concentrations (MCF7)	Hydrolysis rate [1]
C=CCNC1=C2C[C@@H](C)C[C@H](OC)[C@H](O)[C@@H](C)/C=C(\C)[C@H](OC(N)=O)[C@@H](OC)/C=C\C=C(/C)C(=O)NC(=CC1=O)C2=O [Formulation 17AAG, 17 allylamino, 17 demethoxygeldanamycin]	did not show any significant cytotoxic effect	did not show any significant cytotoxic effect	
C=C(C)C(=O)OCCOC(OCCOC(=O)C(=C)C)c1ccc(OC)cc1OC [di (2-methacryloyloxyethoxy)-[2,4-dimethoxyphenyl]methane]			hydrolyzes much faster at pH 5.0 than at pH 7.4
